In the CheMixHub ionic liquid set:

Experiment: xn = mol fraction of the nth substance listed

CCC(=O)O.CCC(=O)[O-].CC[NH+](CC)CCO + CCCC[n+]1ccn(C)c1.COP(=O)([O-])OC
101 kPa
Settings | viscosity [mPa·s]
278.15 K, x1 = 0.08 | 1956
283.15 K, x1 = 0.2364 | 446
283.15 K, x1 = 0.4953 | 205.6
283.15 K, x1 = 0.6252 | 170.9
283.15 K, x1 = 0.7416 | 147.7
288.15 K, x1 = 0.6252 | 123.8
293.15 K, x1 = 0.3281 | 154
293.15 K, x1 = 0.8667 | 70.8
298.15 K, x1 = 0.7416 | 60.3
298.15 K, x1 = 1 | 66.2
303.15 K, x1 = 0.08 | 280.9
303.15 K, x1 = 0.2364 | 123.4
303.15 K, x1 = 0.4183 | 70.2
303.15 K, x1 = 0.8667 | 41.6
308.15 K, x1 = 0.4183 | 54.9
308.15 K, x1 = 0.8667 | 32.8
313.15 K, x1 = 0.3281 | 53.8
313.15 K, x1 = 0.4953 | 39.2
318.15 K, x1 = 0.6252 | 27.36
323.15 K, x1 = 0.2364 | 47.3
323.15 K, x1 = 0.4953 | 25.98
328.15 K, x1 = 0.2364 | 38.66
328.15 K, x1 = 0.7416 | 16.29
328.15 K, x1 = 0.8667 | 14.65
333.15 K, x1 = 0.4953 | 18.11
333.15 K, x1 = 0.8667 | 12.33
333.15 K, x1 = 1 | 14.08
338.15 K, x1 = 0.08 | 48.11
338.15 K, x1 = 0.2364 | 26.76
338.15 K, x1 = 0.6252 | 13.4
338.15 K, x1 = 0.7416 | 11.64
343.15 K, x1 = 0.4953 | 13.09
348.15 K, x1 = 0.1549 | 25.27
348.15 K, x1 = 0.4183 | 12.61
348.15 K, x1 = 0.6252 | 9.95
348.15 K, x1 = 0.8667 | 7.75
353.15 K, x1 = 0.1549 | 21.56
353.15 K, x1 = 0.4183 | 10.98
358.15 K, x1 = 0.4183 | 9.63
358.15 K, x1 = 0.4953 | 8.59
358.15 K, x1 = 0.6252 | 7.61
363.15 K, x1 = 0.7416 | 5.82
363.15 K, x1 = 1 | 5.7
368.15 K, x1 = 0.08 | 17.66
368.15 K, x1 = 0.1549 | 14.09
368.15 K, x1 = 0.7416 | 5.16
373.15 K, x1 = 0.7416 | 4.6
373.15 K, x1 = 1 | 4.41

CC(C)=O + CCCC[n+]1ccn(C)c1.F[B-](F)(F)F
Settings | electrical conductivity, 296.15 K [S/m] | viscosity, 303.15 K [mPa·s] | viscosity, 313.15 K [mPa·s] | viscosity, 323.15 K [mPa·s]
100 kPa, x2 = 0 | – | 0.303 | 0.276 | 0.255
101 kPa, x1 = 1 | 0.05 | – | – | –

CCCCCC[n+]1ccn(C)c1.F[B-](F)(F)F + CCCC[n+]1ccn(C)c1.F[B-](F)(F)F
101 kPa
Settings | viscosity [mPa·s]
298.15 K, x2 = 0.103 | 195.1
298.15 K, x2 = 0.8917 | 115.3
299.15 K, x2 = 0.103 | 184.2
299.15 K, x2 = 0.809 | 115.7
301.15 K, x2 = 0.809 | 104.4
301.15 K, x2 = 0.8917 | 98.6
302.15 K, x2 = 0.3602 | 132.9
302.15 K, x2 = 0.555 | 115.9
302.15 K, x2 = 0.8917 | 93.9
303.15 K, x2 = 0.3602 | 126.2
303.15 K, x2 = 0.555 | 110
303.15 K, x2 = 0.809 | 94.5
303.15 K, x2 = 0.8917 | 89.3
304.15 K, x2 = 0.103 | 139.2
304.15 K, x2 = 0.5047 | 110
305.15 K, x2 = 0.3602 | 113.5
305.15 K, x2 = 0.4383 | 107.7
305.15 K, x2 = 0.598 | 98.5
305.15 K, x2 = 0.809 | 85.6
307.15 K, x2 = 0.054 | 123.9
308.15 K, x2 = 0.103 | 113
308.15 K, x2 = 0.3602 | 97.3
308.15 K, x2 = 0.4383 | 92.8

COCCOCCO + CCCC[n+]1ccn(C)c1.F[B-](F)(F)F
100 kPa
Settings | viscosity [mPa·s]
283.15 K, x2 = 0.05366 | 7.07
283.15 K, x2 = 0.09486 | 8.3
283.15 K, x2 = 0.1969 | 12.44
283.15 K, x2 = 0.2893 | 17.54
283.15 K, x2 = 0.3913 | 25.12
283.15 K, x2 = 0.4909 | 35.39
283.15 K, x2 = 0.5826 | 48.46
283.15 K, x2 = 0.6949 | 71.9
283.15 K, x2 = 0.7838 | 100
283.15 K, x2 = 0.8792 | 145
283.15 K, x2 = 0.9489 | 192.9
293.15 K, x2 = 0.04883 | 4.923
293.15 K, x2 = 0.09356 | 5.88
293.15 K, x2 = 0.192 | 8.36
293.15 K, x2 = 0.292 | 11.92
293.15 K, x2 = 0.3812 | 15.94
293.15 K, x2 = 0.4892 | 22.53
293.15 K, x2 = 0.5841 | 30.52
293.15 K, x2 = 0.6808 | 41.95
293.15 K, x2 = 0.7796 | 58.1
293.15 K, x2 = 0.8752 | 81.9
293.15 K, x2 = 0.9414 | 109.4
303.15 K, x2 = 0.05005 | 3.91
303.15 K, x2 = 0.1374 | 4.662
303.15 K, x2 = 0.2026 | 6.323
303.15 K, x2 = 0.2965 | 8.36
303.15 K, x2 = 0.3975 | 11.28
303.15 K, x2 = 0.491 | 15.38
303.15 K, x2 = 0.5868 | 20.14
303.15 K, x2 = 0.6897 | 27.27
303.15 K, x2 = 0.7826 | 36.34
303.15 K, x2 = 0.8807 | 50.95
303.15 K, x2 = 0.9393 | 63.1
313.15 K, x2 = 0.04527 | 2.966
313.15 K, x2 = 0.09794 | 3.523
313.15 K, x2 = 0.2017 | 4.838
313.15 K, x2 = 0.2869 | 6.194
313.15 K, x2 = 0.3858 | 8.06
313.15 K, x2 = 0.4987 | 10.87
313.15 K, x2 = 0.5953 | 13.94
313.15 K, x2 = 0.6918 | 18.09
313.15 K, x2 = 0.7818 | 23.11
313.15 K, x2 = 0.8804 | 29.78
313.15 K, x2 = 0.9409 | 34.99

c1ccncc1 + CCCC[n+]1ccn(C)c1.F[B-](F)(F)F
298.15 K, 101 kPa
Settings | electrical conductivity [S/m] | viscosity [mPa·s]
x1 = 0.1059 | 0.264 | 82
x1 = 0.2 | 0.347 | 58
x1 = 0.3028 | 0.456 | 39.2
x1 = 0.3969 | 0.601 | 26.4
x1 = 0.5033 | 0.792 | 16.4
x1 = 0.6063 | 1.01 | 9.9
x1 = 0.6873 | 1.17 | 6.39
x1 = 0.807 | 1.3 | 3.2
